How the values were obtained:
Format in all cases: functional
COLO 205 [1] = experiment: Induction of apoptosis in human COLO205 cells assessed as necrotic apoptosis cells level at 10 uM after 24 hrs by Annexin V/propidium iodide staining-based fluorescence microscopy
MDA-MB-468 [2] = experiment: Growth inhibition of human MDA-MB-468 cells after 48 hrs by sulforhodamine B assay; conditions: MDA-MB-468, 48 h; for CC50: read-out: LC50 (the source's name)
[3] = Growth inhibition of human OVCAR3 cells assessed as cell growth at 10^-6 M after 48 hrs by sulforhodamine B assay; conditions: OVCAR-3, 48 h, read-out: Activity
[4] = Growth inhibition of human UACC62 cells assessed as cell growth at 10^-6 M after 48 hrs by sulforhodamine B assay; conditions: UACC-62, 48 h, read-out: Activity
T47D = experiment: Growth inhibition of human T47D cells assessed as cell growth at 10^-7 M after 48 hrs by sulforhodamine B assay; conditions: read-out: Activity
MDA-MB-231 = experiment: Growth inhibition of human MDA-MB-231 cells assessed as cell growth at 10^-7 M after 48 hrs by sulforhodamine B assay; conditions: MDA-MB-231, 48 h, read-out: Activity
[5] = Growth inhibition of human UO31 cells assessed as cell growth at 10^-7 M after 48 hrs by sulforhodamine B assay; conditions: UO-31, 48 h, read-out: Activity
SK-OV-3 [6] = experiment: Growth inhibition of human SKOV3 cells assessed as cell growth at 10^-7 M after 48 hrs by sulforhodamine B assay; conditions: SK-OV-3, 48 h, read-out: Activity
[7] = Growth inhibition of human OVCAR4 cells assessed as cell growth at 10^-7 M after 48 hrs by sulforhodamine B assay; conditions: OVCAR-4, 48 h, read-out: Activity
[8] = Growth inhibition of human RXF393 cells assessed as cell growth at 10^-6 M after 48 hrs by sulforhodamine B assay; conditions: RXF 393, 48 h, read-out: Activity
SK-OV-3 [9] = experiment: Growth inhibition of human SKOV3 cells assessed as cell growth at 10^-6 M after 48 hrs by sulforhodamine B assay; conditions: SK-OV-3, 48 h, read-out: Activity
[10] = Growth inhibition of human OVCAR8 cells assessed as cell growth at 10^-6 M after 48 hrs by sulforhodamine B assay; conditions: OVCAR-8, 48 h, read-out: Activity
[11] = Growth inhibition of human OVCAR8 cells assessed as cell growth at 10^-4 M after 48 hrs by sulforhodamine B assay; conditions: OVCAR-8, 48 h, read-out: Activity
MDA-MB-435 = experiment: Growth inhibition of human MDA-MB-435 cells assessed as cell growth at 10^-4 M after 48 hrs by sulforhodamine B assay; conditions: MDA-MB-435, 48 h, read-out: Activity
M14 = experiment: Growth inhibition of human M14 cells assessed as cell growth at 10^-4 M after 48 hrs by sulforhodamine B assay; conditions: M14, 48 h, read-out: Activity
[12] = Growth inhibition of human LOXIMVI cells assessed as cell growth at 10^-4 M after 48 hrs by sulforhodamine B assay; conditions: LOX IMVI, read-out: Activity
COLO 205 [13] = experiment: Growth inhibition of human COLO205 cells assessed as cell growth at 10^-4 M after 48 hrs by sulforhodamine B assay; conditions: COLO 205, 48 h, read-out: Activity
NCI-H322M [14] = experiment: Growth inhibition of human NCI-H322M cells assessed as cell growth at 10^-4 M after 48 hrs by sulforhodamine B assay; conditions: read-out: Activity
[15] = Growth inhibition of human MOLT4 cells assessed as cell growth at 10^-4 M after 48 hrs by sulforhodamine B assay; conditions: MOLT-4, 48 h, read-out: Activity
K562 = experiment: Growth inhibition of human K562 cells assessed as cell growth at 10^-4 M after 48 hrs by sulforhodamine B assay; conditions: K562, 48 h, read-out: Activity
SK-MEL-5 = experiment: Growth inhibition of human SK-MEL-5 cells assessed as cell growth at 10^-8 M after 48 hrs by sulforhodamine B assay; conditions: SK-MEL-5, 48 h; for growth at 0.01 µM: read-out: Activity; for CC50: read-out: pLC50 (the source's name) (converted); for TGI: read-out: pTGI (converted)
SF-268 [16] = experiment: Growth inhibition of human SF268 cells assessed as cell growth at 10^-8 M after 48 hrs by sulforhodamine B assay; conditions: SF-268, 48 h; for growth at 0.01 µM: read-out: Activity; for TGI: read-out: pTGI (converted)
KM12 = experiment: Growth inhibition of human KM12 cells assessed as cell growth at 10^-8 M after 48 hrs by sulforhodamine B assay; conditions: KM12, 48 h; for growth at 0.01 µM: read-out: Activity; for TGI: read-out: pTGI (converted)
HCT-116 = experiment: Growth inhibition of human HCT116 cells assessed as cell growth at 10^-8 M after 48 hrs by sulforhodamine B assay; conditions: HCT-116, 48 h; for growth at 0.01 µM: read-out: Activity; for TGI: read-out: pTGI (converted)
SN12C = experiment: Growth inhibition of human SN12C cells after 48 hrs by sulforhodamine B assay; conditions: for CC50: read-out: LC50 (the source's name)
U-251 = experiment: Growth inhibition of human U251 cells after 48 hrs by sulforhodamine B assay; conditions: U-251, 48 h; for CC50: read-out: LC50 (the source's name)
NCI-H226 [17] = experiment: Growth inhibition of human NCI-H226 cells after 48 hrs by sulforhodamine B assay; conditions: NCI-H226, 48 h; for CC50: read-out: LC50 (the source's name)
MDA-MB-468 [18] = experiment: Growth inhibition of human MDA-MB-468 cells assessed as cell growth at 10^-4 M after 48 hrs by sulforhodamine B assay; conditions: MDA-MB-468, 48 h, read-out: Activity
[19] = Growth inhibition of human SF295 cells assessed as cell growth at 10^-7 M after 48 hrs by sulforhodamine B assay; conditions: SF-295, 48 h, read-out: Activity
SF-268 [20] = experiment: Growth inhibition of human SF268 cells assessed as cell growth at 10^-7 M after 48 hrs by sulforhodamine B assay; conditions: SF-268, 48 h, read-out: Activity
[21] = Growth inhibition of human HCT15 cells assessed as cell growth at 10^-7 M after 48 hrs by sulforhodamine B assay; conditions: HCT-15, 48 h, read-out: Activity
NCI-H322M [22] = experiment: Growth inhibition of human NCI-H322M cells assessed as cell growth at 10^-7 M after 48 hrs by sulforhodamine B assay; conditions: read-out: Activity
NCI-H226 [23] = experiment: Growth inhibition of human NCI-H226 cells assessed as cell growth at 10^-7 M after 48 hrs by sulforhodamine B assay; conditions: NCI-H226, 48 h, read-out: Activity
MDA-MB-468 [24] = experiment: Growth inhibition of human MDA-MB-468 cells assessed as cell growth at 10^-8 M after 48 hrs by sulforhodamine B assay; conditions: MDA-MB-468, 48 h; for growth at 0.01 µM: read-out: Activity; for CC50: read-out: pLC50 (the source's name) (converted); for TGI: read-out: pTGI (converted)

SMILES: O=C1/C(=C/c2ccc(Cl)cc2Cl)CN(S(=O)(=O)c2ccccc2)C/C1=C\c1ccc(Cl)cc1Cl
- Activity (COLO 205 [1]): 1%
- GI50 (MDA-MB-468 [2]): 1.13 µM
- TGI (MDA-MB-468 [2]): 3.89 µM
- CC50 (MDA-MB-468 [2]): > 100 µM
- growth at 1 µM [3]: -10%
- growth at 1 µM [4]: 45%
- growth at 0.1 µM (T47D): 96%
- growth at 0.1 µM (MDA-MB-231): 99%
- growth at 0.1 µM [5]: 93%
- growth at 0.1 µM (SK-OV-3 [6]): 102%
- growth at 0.1 µM [7]: 82%
- growth at 1 µM [8]: 54%
- growth at 1 µM (SK-OV-3 [9]): 108%
- growth at 1 µM [10]: -2%
- growth at 100 µM [11]: -14%
- growth at 100 µM (MDA-MB-435): -9%
- growth at 100 µM (M14): 31%
- growth at 100 µM [12]: -48%
- growth at 100 µM (COLO 205 [13]): -25%
- growth at 100 µM (NCI-H322M [14]): -11%
- growth at 100 µM [15]: -11%
- growth at 100 µM (K562): 3%
- growth at 0.01 µM (SK-MEL-5): 94%
- CC50 (SK-MEL-5): > 100 µM
- TGI (SK-MEL-5): > 100 µM
- GI50 (SF-268 [16]): 0.447 µM
- LC50 (SF-268 [16]): > 100 µM
- growth at 0.01 µM (SF-268 [16]): 99%
- TGI (SF-268 [16]): > 100 µM
- GI50 (KM12): 0.257 µM
- LC50 (KM12): 25.7 µM
- growth at 0.01 µM (KM12): 100%
- TGI (KM12): 0.603 µM
- GI50 (HCT-116): 0.2 µM
- LC50 (HCT-116): 0.912 µM
- growth at 0.01 µM (HCT-116): 99%
- TGI (HCT-116): 0.427 µM
- GI50 (SN12C): 0.245 µM
- TGI (SN12C): 0.718 µM
- CC50 (SN12C): > 100 µM
- GI50 (U-251): 0.173 µM
- TGI (U-251): 0.373 µM
- CC50 (U-251): 0.805 µM
- GI50 (NCI-H226 [17]): 1.04 µM
- TGI (NCI-H226 [17]): 2.87 µM
- CC50 (NCI-H226 [17]): 7.92 µM
- growth at 100 µM (MDA-MB-468 [18]): -34%
- growth at 0.1 µM [19]: 93%
- growth at 0.1 µM (SF-268 [20]): 98%
- growth at 0.1 µM [21]: 90%
- growth at 0.1 µM (NCI-H322M [22]): 123%
- growth at 0.1 µM (NCI-H226 [23]): 97%
- GI50 (MDA-MB-468 [24]): 1.12 µM
- growth at 0.01 µM (MDA-MB-468 [24]): 90%
- CC50 (MDA-MB-468 [24]): > 100 µM
- TGI (MDA-MB-468 [24]): 3.89 µM

SMILES: Cc1ccc(S(=O)(=O)N2C/C(=C\c3cc(F)cc(F)c3)C(=O)/C(=C/c3cc(F)cc(F)c3)C2)cc1
- Activity (COLO 205 [1]): 3%
- GI50 (MDA-MB-468 [2]): 0.349 µM
- TGI (MDA-MB-468 [2]): 1.71 µM
- CC50 (MDA-MB-468 [2]): 5.77 µM
- growth at 1 µM [3]: 16%
- growth at 1 µM [4]: -38%
- growth at 0.1 µM (T47D): 101%
- growth at 0.1 µM (MDA-MB-231): 97%
- growth at 0.1 µM [5]: 94%
- growth at 0.1 µM (SK-OV-3 [6]): 106%
- growth at 0.1 µM [7]: 93%
- growth at 1 µM [8]: 44%
- growth at 1 µM (SK-OV-3 [9]): 77%
- growth at 1 µM [10]: 15%
- growth at 100 µM [11]: -71%
- growth at 100 µM (MDA-MB-435): -83%
- growth at 100 µM (M14): -86%
- growth at 100 µM [12]: -98%
- growth at 100 µM (COLO 205 [13]): -95%
- growth at 100 µM (NCI-H322M [14]): -44%
- growth at 100 µM [15]: -27%
- growth at 100 µM (K562): -41%
- GI50 (SK-MEL-5): 0.288 µM
- growth at 0.01 µM (SK-MEL-5): 98%
- CC50 (SK-MEL-5): 3.63 µM
- TGI (SK-MEL-5): 1.07 µM
- GI50 (SF-268 [16]): 0.427 µM
- LC50 (SF-268 [16]): 14.5 µM
- growth at 0.01 µM (SF-268 [16]): 98%
- TGI (SF-268 [16]): 2.14 µM
- GI50 (KM12): 0.324 µM
- LC50 (KM12): 4.07 µM
- growth at 0.01 µM (KM12): 106%
- TGI (KM12): 1 µM
- GI50 (HCT-116): 0.209 µM
- LC50 (HCT-116): 1.95 µM
- growth at 0.01 µM (HCT-116): 107%
- TGI (HCT-116): 0.537 µM
- GI50 (SN12C): 0.342 µM
- TGI (SN12C): 1.31 µM
- CC50 (SN12C): 4.26 µM
- GI50 (U-251): 0.188 µM
- TGI (U-251): 0.53 µM
- CC50 (U-251): 2.02 µM
- GI50 (NCI-H226 [17]): 8.62 µM
- TGI (NCI-H226 [17]): 39.6 µM
- CC50 (NCI-H226 [17]): > 100 µM
- growth at 100 µM (MDA-MB-468 [18]): -79%
- growth at 0.1 µM [19]: 92%
- growth at 0.1 µM (SF-268 [20]): 100%
- growth at 0.1 µM [21]: 80%
- growth at 0.1 µM (NCI-H322M [22]): 103%
- growth at 0.1 µM (NCI-H226 [23]): 94%
- GI50 (MDA-MB-468 [24]): 0.347 µM
- growth at 0.01 µM (MDA-MB-468 [24]): 90%
- CC50 (MDA-MB-468 [24]): 5.75 µM
- TGI (MDA-MB-468 [24]): 1.7 µM

From ChEMBL document CHEMBL3217615, “Novel 3,5-bis(arylidiene)-4-piperidone based monocarbonyl analogs of curcumin: anticancer activity evaluation and mode of action study” (2014)
